What is called IC50 is the midpoint of a concentration-inhibition curve.

Format in all cases: protein-complex assay
Test [1] has as its target T1, Cyclin-dependent kinase 4/cyclin D1 (Homo sapiens, UniProt P11802). Put plainly: Inhibitory concentration tested against Cyclin dependant kinase 4-cyclinD1.
Test [2] addresses Cyclin-dependent kinase 1/cyclin B1 (Homo sapiens, UniProt P06493). Nature of the test: Inhibitory concentration tested against Cyclin dependant kinase 1-cyclinB.
Test [3] deals with Cyclin-dependent kinase 5/CDK5 activator 1 (Homo sapiens, UniProt Q00535+Q15078). Nature of the test: Inhibitory concentration tested against Cyclin-dependent kinase 5; NA: not active.
The target of test [4] is T2, Cyclin-dependent kinase 2/cyclin E1 (Homo sapiens, UniProt P24941). Put plainly: Inhibitory concentration tested against Cyclin dependant kinase 2-cyclinE.
Test [5] addresses T1, Cyclin-dependent kinase 4/cyclin D1. Put plainly: Inhibitory concentration tested against Cyclin dependant kinase 4-cyclinD1; ND: not determined.
Test [6] addresses T2, Cyclin-dependent kinase 2/cyclin E1. Nature of the test: Inhibitory concentration tested against Cyclin dependant kinase 2-cyclinE; ND: not determined.
For test [7], the target named is Cyclin-dependent kinase 5/CDK5 activator 1 (Homo sapiens, UniProt Q00535). Nature of the test: Inhibitory concentration tested against Cyclin-dependent kinase 5.
Cyclin-dependent kinase 5/CDK5 activator 1 (Homo sapiens, UniProt Q00535), sequence (Q00535 whole entry): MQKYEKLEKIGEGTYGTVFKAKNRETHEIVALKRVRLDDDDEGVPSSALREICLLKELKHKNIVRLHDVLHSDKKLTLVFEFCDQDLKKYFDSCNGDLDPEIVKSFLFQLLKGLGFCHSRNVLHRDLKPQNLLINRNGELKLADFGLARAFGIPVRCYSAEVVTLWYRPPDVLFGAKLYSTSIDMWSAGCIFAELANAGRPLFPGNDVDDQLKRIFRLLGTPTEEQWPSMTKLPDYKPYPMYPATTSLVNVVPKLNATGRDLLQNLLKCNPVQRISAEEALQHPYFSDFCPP
Cyclin-dependent kinase 5/CDK5 activator 1 (Homo sapiens, UniProt Q00535), sequence (Q15078 whole entry, further chain): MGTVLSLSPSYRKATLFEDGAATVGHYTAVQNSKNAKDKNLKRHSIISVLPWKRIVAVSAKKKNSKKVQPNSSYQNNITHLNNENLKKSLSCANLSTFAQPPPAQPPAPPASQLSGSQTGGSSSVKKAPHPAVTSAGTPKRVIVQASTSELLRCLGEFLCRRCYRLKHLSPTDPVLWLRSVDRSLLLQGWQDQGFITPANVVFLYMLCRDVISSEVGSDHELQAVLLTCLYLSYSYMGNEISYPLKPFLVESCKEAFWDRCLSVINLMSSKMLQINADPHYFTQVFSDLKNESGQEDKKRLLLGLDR

T1 sequence (P11802 whole entry): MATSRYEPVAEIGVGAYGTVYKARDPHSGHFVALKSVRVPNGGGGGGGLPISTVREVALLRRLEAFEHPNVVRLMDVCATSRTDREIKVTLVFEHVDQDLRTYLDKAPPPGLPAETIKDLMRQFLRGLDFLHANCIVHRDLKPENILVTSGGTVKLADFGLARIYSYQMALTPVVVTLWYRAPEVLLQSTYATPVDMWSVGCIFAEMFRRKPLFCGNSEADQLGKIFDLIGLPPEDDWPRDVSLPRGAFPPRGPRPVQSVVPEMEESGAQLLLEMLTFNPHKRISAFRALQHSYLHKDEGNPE
T1 sequence (P24385 whole entry, further chain): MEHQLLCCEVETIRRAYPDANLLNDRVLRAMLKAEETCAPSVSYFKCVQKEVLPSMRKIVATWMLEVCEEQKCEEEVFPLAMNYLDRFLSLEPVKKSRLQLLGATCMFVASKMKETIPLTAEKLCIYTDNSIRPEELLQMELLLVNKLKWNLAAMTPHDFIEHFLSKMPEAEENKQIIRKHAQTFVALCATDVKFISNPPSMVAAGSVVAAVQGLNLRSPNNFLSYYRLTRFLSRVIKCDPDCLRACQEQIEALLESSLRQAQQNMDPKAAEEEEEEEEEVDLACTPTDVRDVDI
Cyclin-dependent kinase 5/CDK5 activator 1 (Homo sapiens, UniProt Q00535+Q15078), sequence (Q00535 whole entry): as the sequence (Q00535 whole entry) above
Cyclin-dependent kinase 5/CDK5 activator 1 (Homo sapiens, UniProt Q00535+Q15078), sequence (Q15078 whole entry): as the sequence (Q15078 whole entry, further chain) above
Cyclin-dependent kinase 1/cyclin B1, sequence (P06493 whole entry): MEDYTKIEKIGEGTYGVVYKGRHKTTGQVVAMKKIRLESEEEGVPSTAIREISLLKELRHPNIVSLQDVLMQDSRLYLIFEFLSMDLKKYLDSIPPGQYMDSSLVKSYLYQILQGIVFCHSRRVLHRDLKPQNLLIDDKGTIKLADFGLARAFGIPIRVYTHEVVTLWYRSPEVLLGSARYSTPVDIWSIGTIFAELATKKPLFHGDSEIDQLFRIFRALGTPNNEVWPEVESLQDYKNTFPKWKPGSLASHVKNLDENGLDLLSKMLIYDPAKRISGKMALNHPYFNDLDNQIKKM
Cyclin-dependent kinase 1/cyclin B1, sequence (P14635 whole entry, further chain): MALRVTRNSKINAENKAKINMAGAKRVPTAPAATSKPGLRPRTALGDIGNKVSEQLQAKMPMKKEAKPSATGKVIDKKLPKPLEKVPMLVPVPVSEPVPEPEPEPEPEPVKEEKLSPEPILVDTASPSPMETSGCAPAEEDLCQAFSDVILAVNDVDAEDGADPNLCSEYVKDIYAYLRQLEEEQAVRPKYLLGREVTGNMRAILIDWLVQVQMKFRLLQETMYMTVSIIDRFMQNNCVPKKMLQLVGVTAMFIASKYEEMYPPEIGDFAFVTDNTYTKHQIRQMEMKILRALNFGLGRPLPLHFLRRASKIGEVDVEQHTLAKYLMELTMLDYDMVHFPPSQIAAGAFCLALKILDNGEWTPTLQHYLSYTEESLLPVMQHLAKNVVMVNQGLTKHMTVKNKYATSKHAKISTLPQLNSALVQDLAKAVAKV

Consider `Oc1ccc2oc3ncc(Cl)c(-c4ccccc4)c3c2c1`, for which the half-maximal inhibitory concentration (IC50) in test [1] was more than 100 µM; in test [2], more than 100 µM; in test [3] it was “Not Active”; in test [4], more than 100 µM.

For `CC(=O)c1cnc2oc3ccc(O)cc3c2c1-c1ccccc1`, the IC50 was 4.2 µM in test [2], more than 100 µM in test [5] and more than 100 µM in test [6].

In the case of `Cc1cnc2oc3ccc(O)cc3c2c1-c1ccccc1`, the IC50 in test [1] was more than 100 µM; in test [2] it was more than 100 µM; in test [3] it was “Not Active”; in test [4] it was more than 100 µM.

As for `Oc1ccc2oc3ncc(Br)c(-c4ccccc4)c3c2c1`, the 50% inhibitory concentration (IC50) in test [1] is 28.7 µM; in test [2], 70.7 µM; in test [3], “Not Active”; in test [4], 3.2 µM.

Consider `COc1cnc2oc3ccc(O)cc3c2c1-c1ccccc1`, for which the IC50 was more than 100 µM in test [1], 64.3 µM in test [2], 6.3 µM in test [7] and 80 µM in test [4].

As to `CCOc1cnc2oc3ccc(O)cc3c2c1-c1ccccc1`, the 50% inhibitory concentration (IC50) is more than 100 µM in test [1], more than 100 µM in test [2], 5.9 µM in test [7] and more than 100 µM in test [4].

The values are drawn from ChEMBL document CHEMBL1144308, “Novel CDK inhibition profiles of structurally varied 1-aza-9-oxafluorenes” (Bioorg Med Chem Lett, 2005).
